Structures are written as SMILES.

The values that follow come from patent US10513539B2, “Hydrophobic modified peptides and their use for liver specific targeting” (Ruprecht-Karls-Universitat Heidelberg, priority 2011, dated 2019).

Data set [1] deals with primary mouse hepatocytes. On the procedure:
Next it was analyzed if the modified doxorubicin is still cytotoxic to cells. In this experiment primary mouse hepatocytes isolated from C57BL/6 mice as described in Galle et al., (1994) (37) were incubated and reseeded in 96 well flat bottom plates to form a confluent cell layer. […] The cells were then incubated for 12 h (FIG. 6A) or 24 h (FIG. 6B), respectively. After incubation an MTT assay (Cell proliferation Kit, Roche Mannheim Germany) was performed as indicated by the manufacturer's instructions to determine remaining cell viability. The results are shown in FIGS. 6A and 6B (Cell Viability Assay).

The procedure of data set [2]:
The peptide stearoyl-[K(DOTA[^68Ga])]3-[…] (SEQ ID NO:15)-amide was dissolved in citrate buffer (pH 8.0)+4% BSA and injected i.v. in the tail vene of tumour bearing WAG/Rij rats. The rats were orthopically injected with 1×10^6 syngenic colon carcinoma cells (CC531 cells) 10 days prior to the measurements. At the day of measurement the rats received the peptide in a concentration of 400 nmol/kg body weight. During the experiments the rats were anaesthetised by isoflurane and kept at 37° C.

As to `COc1cccc2c1C(=O)c1c(O)c3c(c(O)c1C2=O)C[C@@](O)(C(=O)CO)C[C@@H]3O[C@H]1C[C@H](N)[C@H](O)[C@H](C)O1` [doxorubicin], the cytotoxic activity result in the data set with HepG2 cells is “significant cytotoxicity”. For the same molecule, in data set [1], the cytotoxic effects entry was “significant cytotoxic effects”.
As for `CCCCCCCCCCCCCCCCCC(=O)N[C@@H](CCCCNC(=O)CN1CCN(CC(=O)O)CCN(CC(=O)O)CCN(CC(=O)O)CC1)C(=O)N[C@@H](CCCCNC(=O)CN1CCN(CC(=O)O)CCN(CC(=O)O)CCN(CC(=O)O)CC1)C(=O)N[C@@H](CCCCNC(=O)CN1CCN(CC(=O)O)CCN(CC(=O)O)CCN(CC(=O)O)CC1)C(=O)N[C@@H](CC(N)=O)C(=O)N[C@@H](CC(C)C)C(=O)N[C@@H](CO)C(=O)N[C@H](C(=O)N[C@@H](CO)C(=O)N[C@@H](CC(N)=O)C(=O)N1CCC[C@H]1C(=O)N[C@@H](CC(C)C)C(=O)NCC(=O)N[C@@H](Cc1ccccc1)C(=O)N[C@@H](Cc1ccccc1)C(=O)N1CCC[C@H]1C(=O)N[C@@H](CC(=O)O)C(=O)N[C@@H](Cc1c[nH]cn1)C(=O)N[C@@H](CCC(N)=O)C(=O)N[C@@H](CC(C)C)C(=O)N[C@@H](CC(=O)O)C(=O)N1CCC[C@H]1C(N)=O)[C@@H](C)O`, the “enrichment in the liver (PET)” value in data set [2] (400 nmol/kg i.v., WAG/Rji rat, five minutes post i.v. injection (FIG. 4A)) is on record as “Specific enrichment”. In data set [2] (tumour bearing rat (CC531 colon carcinoma), FIG. 4C), the “specificity of staining, liver tissue vs tumor tissue (merged PET images)” value is on record as “staining only liver tissue but not the tumor tissue”.
